The target of the assay is T1, human TGR5 (Homo sapiens, UniProt Q8TDU6).
T1 construct: expressed in transfected cells
T1 sequence (Q8TDU6 1-330): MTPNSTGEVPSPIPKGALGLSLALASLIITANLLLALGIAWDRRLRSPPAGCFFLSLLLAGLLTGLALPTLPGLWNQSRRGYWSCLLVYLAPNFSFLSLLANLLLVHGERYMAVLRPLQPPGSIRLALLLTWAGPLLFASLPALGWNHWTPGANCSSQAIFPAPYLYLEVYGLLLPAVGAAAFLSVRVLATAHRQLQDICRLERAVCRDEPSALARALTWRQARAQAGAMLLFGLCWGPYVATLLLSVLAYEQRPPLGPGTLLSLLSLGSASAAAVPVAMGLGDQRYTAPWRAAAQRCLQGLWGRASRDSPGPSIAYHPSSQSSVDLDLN
The assay is described as follows: cAMP production assay in HEK293 cells stably expressing TGR5 (LANCE TR-FRET). It is filed as cell-based. To be noted: 30 minutes stimulation, read-out: cAMP Production in 293-TGR5 Cells EC50. On the procedure: HEK293 cells stably expressing TGR5 (HEK293-TGR5) were established by stably transfecting HEK-293 cells with an expression vector (pcDNA 3.1, Invetrogen) inserted with human TGR5 cDNA using Fugene6 (Roche, Indianapolis, Ind.) according to conventional methods. Cells were grown in DMEM (invitrogen, Carlsbad, Calif.) supplemented with 10% FBS, 1% penicillin/streptomycin under geneticin selection. The presence of TGR5 transcripts in these cells was confirmed using branched DNA (bDNA, Genospectra, Inc., Fremont Calif.) following the manufacturer's protocol and using specific probes for human TGR5. cAMP production assay was performed in high throughput 1536 well format using LANCE cAMP detection kit (Perkin Elmer Inc., Boston, Mass.) according to the manufacturer's protocol. Briefly, HEK293-TGR5 cells were harvested using non-enzymatic cell dissociation buffer (Invitrogen, Carlsbad, Calif.) and suspended in DMEM supplemented with 0.1% FBS at a density of 800,000 cells/ml. Alexa antibody was added to the cell suspension, and 4 ul of the mixture was dispensed in white opaque tissue culture treated Greiner 1536 well plates (USA Scientific, Inc., Ocala, Fla.). After an overnight incubation at 37 C in an atmosphere of 10% CO2 and 95% humidity, 1 ul of 5 mM IBMX (Sigma, St. Louis, Mo.) solution in DMEM was dispensed for a final concentration of 1 mM. Cells were then stimulated with test compounds for 30 minutes, after which time 5 ul of detection reagent was added and incubated for 1-7 hrs at room temperature. TR-FRET signal was detected using the Viewlux (Perkin Elmer Inc., Boston Mass.). EC50 values were determined using Graph Pad Prizm analysis (GraphPad Software, Inc). The EC50 values for a wide range of bile acids generated from this assay were in agreement with the values published in the scientific literature. […] The symbol (+) denotes an EC50 value of ≦10 μM while the symbol (−) denotes an EC50 value of >10 μM (see Table 1).
Consider `CC(C)c1ccc(CNn2c(-c3ccc(F)cc3)nc3ccccc3c2=O)cc1` [Example 2, 2-(4-fluorophenyl)-3-(4-isopropylbenzylamino)quinazolin-4(3H)-one], for which the EC50 is > 10 µM.

Regarding `O=c1c2ccccc2nc(-c2ccccc2F)n1NCc1cccc(Br)c1` [Example 3, 3-(3-bromobenzylamino)-2-(2-fluorophenyl)quinazolin-4(3H)-one], the half-maximal effective concentration (EC50) is ≤ 10 µM.

With `O=c1c2ccccc2nc(-c2ccccc2F)n1NCc1ccc(Cl)cc1Cl` [Example 4, 3-(2,4-dichlorobenzylamino)-2-(2-fluorophenyl)quinazolin-4(3H)-one], the EC50 was ≤ 10 µM.

`O=c1c2ccccc2nc(-c2ccccc2F)n1NCc1ccc(Br)cc1` [Example 5, 3-(4-bromobenzylamino)-2-(2-fluorophenyl)quinazolin-4(3H)-one]: the EC50 is ≤ 10 µM.

As to `O=c1c2ccccc2nc(-c2ccccc2)n1NCc1ccccc1` [Example 6, 3-(benzylamino)-2-phenylquinazolin-4(3H)-one], the EC50 is ≤ 10 µM.

`O=c1c2ccccc2nc(-c2cccc(F)c2)n1NCc1ccc(F)cc1F` [Example 7, 3-(2,4-difluorobenzylamino)-2-(3-fluorophenyl)quinazolin-4(3H)-one]: the EC50 is ≤ 10 µM.

Consider `O=c1c2ccccc2nc(-c2ccccc2C(F)(F)F)n1NCc1ccc(Br)cc1` [Example 8, 3-(4-bromobenzylamino)-2-(2(trifluoromethyl)phenyl)quinazolin-4(3H)-one], for which the EC50 was ≤ 10 µM.

With `O=c1c2ccccc2nc(-c2ccc(C(F)(F)F)cc2)n1NCc1ccc(Br)cc1` [Example 9, 3-(4-bromobenzylamino)-2-(4-(trifluoromethyl)phenyl)quinazolin-4(3H)-one], the 50% effective concentration (EC50) is ≤ 10 µM.

With `O=c1c2ccccc2nc(-c2ccccc2Cl)n1NCc1ccc(Br)cc1` [Example 10, 3-(4-bromobenzylamino)-2-(2-chlorophenyl)quinazolin-4(3H)-one], the EC50 was ≤ 10 µM.

In the case of `CC(C)(C)c1ccc(CNn2c(-c3ccccc3F)nc3ccccc3c2=O)cc1` [Example 11, 3-(4-tert-butylbenzylamino)-2-(2-fluorophenyl)quinazolin-4(3H)-one], the EC50 was > 10 µM.

In the case of `O=c1c2ccccc2nc(-c2ccccc2F)n1NCc1ccc(F)cc1F` [Example 12, 3-(2,4-difluorobenzylamino)-2-(2-fluorophenyl)quinazolin-4(3H)-one], the EC50 is ≤ 10 µM.

`O=c1c2ccccc2nc(-c2ccccc2F)n1NCc1cc(F)cc(F)c1` [Example 13, 3-(3,5-difluorobenzylamino)-2-(2-fluorophenyl)quinazolin-4(3H)-one]: the EC50 was ≤ 10 µM.

`O=c1c2ccccc2nc(-c2ccccc2F)n1NCc1ccc(F)c(F)c1` [Example 14, 3-(3,4-difluorobenzylamino)-2-(2-fluorophenyl)quinazolin-4(3H)-one]: the 50% effective concentration (EC50) was ≤ 10 µM.

As to `Cc1ccccc1-c1nc2ccccc2c(=O)n1NCc1ccc(Br)cc1` [Example 15, 3-(4-bromobenzylamino)-2-o-tolylquinazolin-4(3H)-one], the concentration giving a half-maximal response (EC50) is ≤ 10 µM.

Take `O=c1c2ccccc2nc(CCc2ccccc2)n1NCc1ccc(F)cc1F` [Example 16, 3-(2,4-difluorobenzylamino)-2-phenethylquinazolin-4(3H)-one]: the EC50 was ≤ 10 µM.

For `O=c1c2ccccc2nc(-c2ccccc2F)n1NCc1ccc(C(F)(F)F)cc1` [Example 17, 2-(2-fluorophenyl)-3-(4-(trifluoromethyl)benzylamino)quinazolin-4(3H)-one], the 50% effective concentration (EC50) is ≤ 10 µM.

As to `O=c1c2ccccc2nc(-c2ccccc2F)n1NCc1cccc(Cl)c1` [Example 18, 3-(3-chlorobenzylamino)-2-(2-fluorophenyl)quinazolin-4(3H)-one], the EC50 was ≤ 10 µM.

As for `COc1ccccc1-c1nc2ccccc2c(=O)n1NCc1ccc(Br)cc1` [Example 19, 3-(4-bromobenzylamino)-2-(2-methoxyphenyl)quinazolin-4(3H)-one], the EC50 is > 10 µM.

In the case of `O=c1c2ccccc2nc(-c2ccccc2F)n1NCc1cccc(C(F)(F)F)c1` [Example 20, 2-(2-fluorophenyl)-3-(3-(trifluoromethyl)benzylamino)quinazolin-4(3H)-one], the concentration giving a half-maximal response (EC50) was ≤ 10 µM.

With `O=c1c2ccccc2nc(-c2ccccc2F)n1NCc1ccc(C(F)(F)F)c(F)c1` [Example 21, 3-(3-fluoro-4-(trifluoromethyl)benzylamino)-2-(2-fluorophenyl)quinazolin-4(3H)-one], the EC50 is ≤ 10 µM.

For the molecule `Cc1ccc(CNn2c(-c3ccccc3F)nc3ccccc3c2=O)cc1` [Example 22, 2-(2-fluorophenyl)-3-(4-methylbenzylamino)quinazolin-4(3H)-one], the EC50 was ≤ 10 µM.

Take `O=c1c2ccccc2nc(-c2ccccc2F)n1NCc1ccc(OC(F)(F)F)cc1` [Example 23, 2-(2-fluorophenyl)-3-(4-(trifluoromethoxy)benzylamino)quinazolin-4(3H)-one]: the EC50 was ≤ 10 µM.

Consider `Cc1ccc2c(=O)n(NCc3ccc(Br)cc3)c(-c3ccccc3F)nc2c1` [Example 24, 3-(4-bromobenzylamino)-2-(2-fluorophenyl)-7-methylquinazolin-4(3H)-one], for which the concentration for a half-maximal effect (EC50) was ≤ 10 µM.

In the case of `Cc1ccc2c(=O)n(NCc3ccc(F)cc3F)c(-c3ccccc3F)nc2c1` [Example 25, 3-(2,4-difluorobenzylamino)-2-(2-fluorophenyl)-7-methylquinazolin-4(3H)-one], the EC50 is ≤ 10 µM.

Regarding `COc1ccc2nc(-c3ccccc3F)n(NCc3ccc(Br)cc3)c(=O)c2c1` [Example 26, 3-(4-bromobenzylamino)-2-(2-fluorophenyl)-6-methoxy quinazolin-4(3H)-one], the EC50 is > 10 µM.

With `COc1ccc2nc(-c3ccccc3F)n(NCc3ccc(F)cc3F)c(=O)c2c1` [Example 27, 3-(2,4-difluorobenzylamino)-2-(2-fluorophenyl)-6-methoxy quinazolin-4(3H)-one], the 50% effective concentration (EC50) is ≤ 10 µM.

With `O=c1c2ccc(C(F)(F)F)cc2nc(-c2ccccc2F)n1NCc1ccc(Br)cc1` [Example 28, 3-(4-bromobenzylamino)-2-(2-fluorophenyl)-7-(trifluoromethyl)quinazolin-4(3H)-one], the EC50 was > 10 µM.

Regarding `O=c1c2ccc(C(F)(F)F)cc2nc(-c2ccccc2F)n1NCc1ccc(F)cc1F` [Example 29, 3-(2,4-difluorobenzylamino)-2-(2-fluorophenyl)-7-(trifluoromethyl)quinazolin-4(3H)-one], the EC50 is > 10 µM.

`O=c1c2ccc(C(F)(F)F)cc2nc(-c2ccccc2F)n1NCc1ccc(Cl)cc1` [Example 30, 3-(4-chlorobenzylamino)-2-(2-fluorophenyl)-7-(trifluoromethyl)quinazolin-4(3H)-one]: the concentration giving a half-maximal response (EC50) is > 10 µM.

Take `O=c1c2ccccc2nc(-c2ccccn2)n1NCc1ccc(Br)cc1` [Example 31, 3-(4-bromobenzylamino)-2-(pyridin-2-yl)quinazolin-4(3H)-one]: the half-maximal effective concentration (EC50) is ≤ 10 µM.

For `N#Cc1ccc(CNn2c(-c3ccc(F)cc3)nc3ccccc3c2=O)cc1` [Example 32, 4-((2-(4-fluorophenyl)-4-oxoquinazolin-3(4H)-ylamino)methyl)benzonitrile], the EC50 is ≤ 10 µM.

For `COc1ccc2c(=O)n(NCc3ccc(Br)cc3)c(-c3ccc(F)cc3)nc2c1` [Example 33, 3-(4-bromobenzylamino)-2-(4-fluorophenyl)-7-methoxyquinazolin-4(3H)-one], the concentration giving a half-maximal response (EC50) is > 10 µM.

For the molecule `COc1ccc2c(=O)n(NCc3ccc(F)cc3F)c(-c3ccc(F)cc3)nc2c1` [Example 34, 3-(2,4-difluorobenzylamino)-2-(4-fluorophenyl)-7-methoxy quinazolin-4(3H)-one], the EC50 is > 10 µM.

Regarding `COc1ccc2c(=O)n(NCc3ccc(Cl)cc3)c(-c3ccc(F)cc3)nc2c1` [Example 35, 3-(4-chlorobenzylamino)-2-(4-fluorophenyl)-7-methoxyquinazolin-4(3H)-one], the EC50 is > 10 µM.

As to `COc1ccc2c(=O)n(NCc3ccc(C(F)(F)F)cc3)c(-c3ccc(F)cc3)nc2c1` [Example 36, 2-(4-fluorophenyl)-7-methoxy-3-(4-(trifluoromethyl)benzylamino)quinazolin-4(3H)-one], the 50% effective concentration (EC50) was > 10 µM.

With `O=c1c2ccccc2nc(-c2ccc(F)cc2)n1NCc1cccnc1` [Example 37, 2-(4-fluorophenyl)-3-(pyridin-3-ylmethylamino)quinazolin-4(3H)-one], the EC50 was > 10 µM.

(Values after patent publication US20090035306A1 (KALYPSYS, INC., priority 2006, published 2009).)
